The target of data set [1] is Poly [ADP-ribose] polymerase 1 (Homo sapiens, UniProt P09874).
Description: Inhibition of human PARP1 after 60 mins by LC-MS analysis
The nature of data set [2]: Mean residence time (0 to t) in C57BL/6 mouse at 1 mg/kg, iv. In kind it is ADME, organism-based. The conditions noted are these: in vivo. Set-up: dose 1 mg/kg, route intravenous.
Data set [3] addresses T1, Poly [ADP-ribose] polymerase tankyrase-1 (Homo sapiens, UniProt O95271).
T1 sequence (O95271 whole entry): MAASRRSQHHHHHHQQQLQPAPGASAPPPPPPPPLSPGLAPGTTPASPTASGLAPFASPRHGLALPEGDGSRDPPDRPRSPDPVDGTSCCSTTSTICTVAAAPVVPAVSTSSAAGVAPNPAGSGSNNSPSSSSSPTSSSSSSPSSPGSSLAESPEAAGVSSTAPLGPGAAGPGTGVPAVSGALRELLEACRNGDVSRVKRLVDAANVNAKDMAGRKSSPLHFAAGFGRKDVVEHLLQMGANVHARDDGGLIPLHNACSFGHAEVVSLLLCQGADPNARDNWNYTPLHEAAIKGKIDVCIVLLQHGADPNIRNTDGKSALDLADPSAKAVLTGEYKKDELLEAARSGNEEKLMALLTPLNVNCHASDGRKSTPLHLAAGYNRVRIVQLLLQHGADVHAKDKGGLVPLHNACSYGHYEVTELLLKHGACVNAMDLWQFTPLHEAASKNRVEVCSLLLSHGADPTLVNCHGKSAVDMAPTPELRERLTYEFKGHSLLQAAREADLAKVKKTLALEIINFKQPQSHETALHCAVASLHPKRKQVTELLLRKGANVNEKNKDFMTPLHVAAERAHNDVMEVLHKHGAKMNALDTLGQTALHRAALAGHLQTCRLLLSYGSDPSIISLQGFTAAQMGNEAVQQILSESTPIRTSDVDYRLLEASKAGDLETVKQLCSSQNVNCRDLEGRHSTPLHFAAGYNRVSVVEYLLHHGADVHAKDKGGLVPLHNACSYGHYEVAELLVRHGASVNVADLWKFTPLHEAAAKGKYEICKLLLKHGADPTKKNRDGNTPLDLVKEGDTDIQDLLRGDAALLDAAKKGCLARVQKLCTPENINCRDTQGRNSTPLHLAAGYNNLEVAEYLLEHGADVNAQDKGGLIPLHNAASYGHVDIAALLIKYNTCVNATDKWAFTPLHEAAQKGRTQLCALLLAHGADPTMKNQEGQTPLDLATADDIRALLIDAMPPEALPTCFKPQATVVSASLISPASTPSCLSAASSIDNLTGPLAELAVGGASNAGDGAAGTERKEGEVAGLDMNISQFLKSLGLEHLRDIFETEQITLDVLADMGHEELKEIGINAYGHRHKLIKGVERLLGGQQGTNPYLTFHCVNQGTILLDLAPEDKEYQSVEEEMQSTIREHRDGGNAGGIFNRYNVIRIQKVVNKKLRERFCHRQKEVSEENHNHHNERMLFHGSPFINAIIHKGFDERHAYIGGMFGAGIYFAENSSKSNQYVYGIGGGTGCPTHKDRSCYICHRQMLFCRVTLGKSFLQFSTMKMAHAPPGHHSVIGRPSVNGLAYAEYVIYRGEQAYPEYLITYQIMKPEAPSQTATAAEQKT
Put plainly: Inhibition of N-terminal GST-tagged human TNKS1 expressed in baculovirus infected sf21 cells after 60 mins by LC-MS analysis.

Data set [4] addresses T2, Poly [ADP-ribose] polymerase tankyrase-2 (Homo sapiens, UniProt Q9H2K2).
T2 sequence (Q9H2K2 whole entry): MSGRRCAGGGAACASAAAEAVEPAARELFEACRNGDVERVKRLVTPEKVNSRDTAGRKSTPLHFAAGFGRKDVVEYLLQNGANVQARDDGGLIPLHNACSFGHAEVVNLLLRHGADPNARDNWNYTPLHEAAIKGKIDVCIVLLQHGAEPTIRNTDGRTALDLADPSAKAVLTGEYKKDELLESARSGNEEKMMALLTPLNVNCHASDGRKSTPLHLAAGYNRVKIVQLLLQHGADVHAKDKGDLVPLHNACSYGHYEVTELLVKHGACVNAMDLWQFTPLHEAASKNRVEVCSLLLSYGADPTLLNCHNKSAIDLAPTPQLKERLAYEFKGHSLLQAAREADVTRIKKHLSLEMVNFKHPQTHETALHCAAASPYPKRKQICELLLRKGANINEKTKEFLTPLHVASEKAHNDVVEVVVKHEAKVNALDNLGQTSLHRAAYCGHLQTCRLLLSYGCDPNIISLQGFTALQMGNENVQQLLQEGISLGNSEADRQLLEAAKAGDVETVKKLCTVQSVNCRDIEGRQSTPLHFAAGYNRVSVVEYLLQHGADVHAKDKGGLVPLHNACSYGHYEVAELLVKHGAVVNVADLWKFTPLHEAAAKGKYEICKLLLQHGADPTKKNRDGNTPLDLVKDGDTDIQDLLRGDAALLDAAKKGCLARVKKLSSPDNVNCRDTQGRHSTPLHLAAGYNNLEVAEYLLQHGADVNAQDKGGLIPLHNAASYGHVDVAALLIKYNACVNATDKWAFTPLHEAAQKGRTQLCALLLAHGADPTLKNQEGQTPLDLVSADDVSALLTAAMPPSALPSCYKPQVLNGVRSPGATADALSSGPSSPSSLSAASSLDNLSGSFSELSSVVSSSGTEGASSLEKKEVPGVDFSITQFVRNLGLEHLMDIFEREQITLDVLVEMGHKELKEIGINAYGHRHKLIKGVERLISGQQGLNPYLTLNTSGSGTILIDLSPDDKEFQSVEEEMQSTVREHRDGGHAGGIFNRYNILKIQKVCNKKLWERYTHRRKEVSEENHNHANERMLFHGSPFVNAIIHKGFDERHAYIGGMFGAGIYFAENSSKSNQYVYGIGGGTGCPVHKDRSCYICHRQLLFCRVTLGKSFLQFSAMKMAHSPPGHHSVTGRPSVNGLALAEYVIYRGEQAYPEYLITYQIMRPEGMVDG
Put plainly: Inhibition of N-terminal GST-tagged TNKS2 (unknown origin) expressed in baculovirus infected sf21 cells after 60 mins by LC-MS analysis.

A short description of data set [5]: Oral bioavailability in C57BL/6 mouse at 5 mg/kg. The class given is ADME, organism-based. Particulars: in vivo.
Data set [6] is described as follows: Inhibition of Wnt signaling in human HEK293 cells by STF luciferase reporter gene assay. (In general: A reporter such as luciferase makes a cellular process visible.)
Data set [7] is described as follows: Hepatic extraction ratio in human liver microsomes. The class given is ADME, Microsome. The conditions noted are these: read-out: ERH. In general terms: Liver microsomes are vesicles of endoplasmic reticulum, rich in cytochrome P450 enzymes.
A short description of data set [8]: AUC (last) in C57BL/6 mouse at 5 mg/kg, po. In kind it is ADME, organism-based. Set-up: time 0 - last, dose 5 mg/kg, route oral. The conditions noted are these: plasma.
Data set [9] in a line: Tmax in C57BL/6 mouse at 5 mg/kg, po. The class given is ADME, organism-based. The conditions noted are these: in vivo. Set-up: dose 5 mg/kg, route oral.
Data set [10] can be described thus: Inhibition of TNKS in human SW480 cells assessed as stabilization of axin2 after 24 hrs by ELISA. In kind it is cell-based. (In general: An ELISA detects its analyte on a solid surface through an enzyme-linked reagent.)
A short description of data set [11]: Cmax in C57BL/6 mouse at 5 mg/kg, po. In kind it is ADME, organism-based. The arrangement: dose 5 mg/kg, route oral. Particulars: in vivo.
Another data set deals with Mus musculus. The experiment in a line: T(last) in C57BL/6 mouse at 1 mg/kg, iv. In kind it is ADME, organism-based. The arrangement: dose 1 mg/kg, route intravenous. The conditions noted are these: in vivo.
Data set [12] can be described thus: Cmax in C57BL/6 mouse at 1 mg/kg, iv. In kind it is ADME, organism-based. The arrangement: dose 1 mg/kg, route intravenous. Particulars: in vivo.
Data set [13] is described as follows: Tmax in C57BL/6 mouse at 1 mg/kg, iv. The class given is ADME, organism-based. Particulars: in vivo. The arrangement: dose 1 mg/kg, route intravenous.
Data set [14] in a line: AUC (last) in C57BL/6 mouse at 1 mg/kg, iv. Particulars: plasma. The class given is ADME, organism-based. Set-up: time 0 - last, dose 1 mg/kg, route intravenous.
The nature of data set [15]: Solubility of the compound at pH 6.8. In kind it is physicochemical. Particulars: buffer.
A short description of data set [16]: Hepatic extraction ratio in mouse liver microsomes. The class given is ADME, Microsome. Particulars: read-out: ERH.
A short description of data set [17]: Volume of distribution at steady state in C57BL/6 mouse at 1 mg/kg, iv. In kind it is ADME, organism-based. The arrangement: dose 1 mg/kg, route intravenous. Particulars: in vivo, read-out: Vdss(app).
Data set [18] can be described thus: Half life in C57BL/6 mouse at 1 mg/kg, iv. The class given is ADME, organism-based. The arrangement: dose 1 mg/kg, route intravenous. Particulars: in vivo.
The nature of data set [19]: Plasma clearance in C57BL/6 mouse at 1 mg/kg, iv. The arrangement: dose 1 mg/kg, route intravenous. The class given is ADME, organism-based.

Structures are written as SMILES. pIC50: −log10 of the molar value.

Sequence of Poly [ADP-ribose] polymerase 1 (P09874 whole entry): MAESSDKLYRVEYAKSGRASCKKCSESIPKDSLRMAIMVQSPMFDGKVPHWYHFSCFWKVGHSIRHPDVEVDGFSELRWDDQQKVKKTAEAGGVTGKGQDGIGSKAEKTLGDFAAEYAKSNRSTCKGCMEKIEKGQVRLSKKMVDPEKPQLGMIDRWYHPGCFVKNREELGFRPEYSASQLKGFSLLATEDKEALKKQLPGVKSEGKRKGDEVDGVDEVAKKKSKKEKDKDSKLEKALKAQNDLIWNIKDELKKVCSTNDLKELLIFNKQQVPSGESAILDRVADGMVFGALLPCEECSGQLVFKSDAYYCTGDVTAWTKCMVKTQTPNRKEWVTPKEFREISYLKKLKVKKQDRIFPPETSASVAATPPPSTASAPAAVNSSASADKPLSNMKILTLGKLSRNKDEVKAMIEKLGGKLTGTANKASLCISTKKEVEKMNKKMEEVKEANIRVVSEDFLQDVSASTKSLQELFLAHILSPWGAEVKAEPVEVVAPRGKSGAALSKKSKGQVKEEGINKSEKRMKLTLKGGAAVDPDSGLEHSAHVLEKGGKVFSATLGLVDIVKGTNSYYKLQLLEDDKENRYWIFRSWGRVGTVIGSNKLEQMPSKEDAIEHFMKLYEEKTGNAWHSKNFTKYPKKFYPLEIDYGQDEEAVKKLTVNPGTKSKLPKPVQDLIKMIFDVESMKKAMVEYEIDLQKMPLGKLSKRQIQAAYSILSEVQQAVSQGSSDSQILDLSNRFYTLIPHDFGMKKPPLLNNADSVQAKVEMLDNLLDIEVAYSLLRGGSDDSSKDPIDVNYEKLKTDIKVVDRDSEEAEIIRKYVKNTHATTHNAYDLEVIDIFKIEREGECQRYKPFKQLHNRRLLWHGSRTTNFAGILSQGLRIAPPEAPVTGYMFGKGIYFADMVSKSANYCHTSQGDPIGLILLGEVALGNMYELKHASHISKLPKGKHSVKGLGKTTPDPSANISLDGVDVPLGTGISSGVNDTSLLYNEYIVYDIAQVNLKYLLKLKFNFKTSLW

As for `CC(C)CC(=O)Nc1nnc2n1CCS2`, the pIC50 (commonly −log10 of the IC50, conventionally taken in molar units) in [1] was 4.26; in data set [3], 6.40; in data set [4], 6.99; in [6] it was 5.19; in data set [10], 5.12. Besides, in [2], the MRT last (commonly the average time that molecules of a dose stay in the body) was determined as 6 min. Also, the bioavailability (as a rule, the share of a dose that reaches the circulation, judged against a reference dose that is usually intravenous) in [5] stood at 36%. Further, the results for the hepatic extraction ratio in data set [7] and in [16] were 0.17 and 0.29, respectively. In addition, the results for the AUC(0-t) in data set [8] and in [14] were 8.6 µM·h and 4.73 µM·h, respectively. For the same molecule, the Tmax in data set [9] and in [13] was 18 min each time. For the same molecule, the Cmax (usually the maximum level reached in the sampled fluid or tissue) turned out to be 13.7 µM in data set [11] and 19.1 µM in data set [12]. The molecule also yielded a Tlast with Mus musculus of 1 h. The solubility (in general, how much of the substance goes into solution per volume) in data set [15] was greater than 1000 µM. The Vd in data set [17] was 0.1 L/kg. The half-life (commonly the time in which the quantity being followed falls by half) in data set [18] is 6 min. Also, in data set [19], the clearance – broadly, a measure of how efficiently the substance is removed, as volume per time – turned out to be 17 mL/min/kg.
